Measured values reported in patent US12552772B2, “2-pyrazole anilines and related analogs for inhibiting YAP/TAZ-TEAD” (KATHOLIEKE UNIVERSITEIT LEUVEN, priority 2021, dated 2026).

Tested on: NCI-H226
Test: Mesothelioma cell line proliferation assay (ATPlite), NCI-H226
Format: cell-based
Details: Homo sapiens, 144 h; NCI-H226 cells, 6 days, ATPlite cell viability
Procedure: Mesothelioma cell lines, NCI-H226 and NCI-H2052 (all sourced from the ATCC cell culture collection) are plated in 96-well plates (Corning® 96 Well White Polystyrene Microplate clear flat bottom, white polystyrene (TC-Treated)), at 1500 cells/well in full medium (RPMI 1640 ATCC modification with L-glutamine, HEPES, Phenol Red, Sodium Pyruvate, High glucose, Low sodium bicarbonate and 10% fetal bovine serum). Cells are incubated overnight at 37° C. in an incubator with 5% CO2. Then compounds, dissolved in DMSO, are added in dose-response. Cells are incubated with compound dilutions for another 6 days at 37° C. in an incubator with 5% CO2. Cell viability is quantitated using the ATPlite kit (Perkin-Elmer) and the luminescence is read-out using an Envision instrument (Perkin-Elmer). The amount of relative light units produced using the ATPlite kit is used to calculated percent of inhibition.
The activities of example compounds tested are depicted in the table below. The activity ranges A, B and C refer to EC50 values in the mesothelioma cell line proliferation assay as described as follows: “A”: EC50<1 μM; “B”: 1 μM s EC50≤10 μM and “C”: EC50>10 μM. NT: not tested.

Row | EC50 | Structure (SMILES)
1 | 1000 to 10000 nM | C=CC(=O)Nc1cncc(-c2cccc(-c3ccn(Cc4ccccc4)n3)c2)c1 [compound 004, N-(5-(3-(1-benzyl-1H-pyrazol-3-yl)phenyl)pyridin-3-yl)acrylamide]
2 | < 1000 nM | NS(=O)(=O)CCNc1ccc(-c2ccccc2)cc1-c1ccn(Cc2cccnc2)n1 [compound 054, 2-((3-(1-(pyridin-3-ylmethyl)-1H-pyrazol-3-yl)-[1,1′-biphenyl]-4-yl)amino)ethane-1-sulfonamide]

Tested on: YAP/TAZ-TEAD transcription
Test: Reporter gene assay for measuring the inhibition of YAP/TAZ-TEAD transcription (TEAD-responsive element luciferase reporter in Hek293T cells)
Format: cell-based
Details: Homo sapiens, HEK-293T, 24 hours incubation
Summary of the method: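 Percent inhibition, scaled between vehicle (0%) and a positive control inhibitor (100%), came from SteadyLite luciferase signal after 24 h compound exposure at 37 °C/5% CO2. Cells: Hek293T transiently carrying a TEAD-responsive luciferase reporter; EC50 derived.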

Row | EC50 | Structure (SMILES)
3 | < 1000 nM | C=CC(=O)Nc1cncc(-c2cccc(-c3ccn(Cc4ccccc4)n3)c2)c1 [compound 004, N-(5-(3-(1-benzyl-1H-pyrazol-3-yl)phenyl)pyridin-3-yl)acrylamide]
4 | 1000 to 20000 nM | C=CC(=O)NCc1ccc(-c2ccc(F)cc2)nc1-c1ccnn1C1CC1 [compound 197, N-((2-(1-cyclopropyl-1H-pyrazol-5-yl)-6-(4-fluorophenyl)pyridin-3-yl)methyl)acrylamide]
5 | < 1000 nM | C=CC(=O)NCc1ccc(-c2ccc(F)cc2)nc1-c1nnn(C(F)F)n1 [compound 199, N-((2-(2-(difluoromethyl)-2H-tetrazol-5-yl)-6-(4-fluorophenyl)pyridin-3-yl)methyl)acrylamide]
6 | > 20000 nM | C=CC(=O)NCc1ccc(-c2ccc(F)cc2)nc1-c1nn[nH]n1 [compound 200, N-((6-(4-fluorophenyl)-2-(2H-tetrazol-5-yl)pyridin-3-yl)methyl)acrylamide]
7 | > 20000 nM | CN(C)C/C=C/C(=O)NCc1cnc(-c2ccc(F)cc2)cc1-c1ccn(C(F)F)n1 [compound 208, (E)-N-((4-(1-(difluoromethyl)-1H-pyrazol-3-yl)-6-(4-fluorophenyl)pyridin-3-yl)methyl)-4-(dimethylamino)but-2-enamide]
8 | < 1000 nM | C=CC(=O)NCc1cnc(-c2ccc(Cl)cc2)cc1-c1ccn(C(F)F)n1 [compound 210, N-((6-(4-chlorophenyl)-4-(1-(difluoromethyl)-1H-pyrazol-3-yl)pyridin-3-yl)methyl)acrylamide]
9 | 1000 to 20000 nM | CCC(=O)NCc1cnc(-c2cccc(F)c2)cc1-c1ccn(C(F)F)n1 [compound 212, N-((4-(1-(difluoromethyl)-1H-pyrazol-3-yl)-6-(3-fluorophenyl)pyridin-3-yl)methyl)propionamide]
10 | < 1000 nM | C=CC(=O)NCc1cnc(-c2ccc(C(F)F)cc2)cc1-c1ccn(C(F)F)n1 [compound 217, N-((4-(1-(difluoromethyl)-1H-pyrazol-3-yl)-6-(4-(difluoromethyl)phenyl)pyridin-3-yl)methyl)acrylamide]
11 | < 1000 nM | C=CC(=O)NCc1cnc(-c2ccc(C#N)cc2)cc1-c1ccn(C(F)F)n1 [compound 219, N-((6-(4-cyanophenyl)-4-(1-(difluoromethyl)-1H-pyrazol-3-yl)pyridin-3-yl)methyl)acrylamide]
12 | 1000 to 20000 nM | C=CC(=O)NCc1cnc(-c2ccn(C(F)F)n2)cc1N1CCC(F)(F)CC1 [compound 222, N-((6-(1-(difluoromethyl)-1H-pyrazol-3-yl)-4-(4,4-difluoropiperidin-1-yl)pyridin-3-yl)methyl)acrylamide]
13 | < 1000 nM | C=CC(=O)NCc1cnc(-c2ccc(F)cc2)cc1-c1cnn(C(F)F)n1 [compound 230, N-((4-(2-(difluoromethyl)-2H-1,2,3-triazol-4-yl)-6-(4-fluorophenyl)pyridin-3-yl)methyl)acrylamide]
14 | 1000 to 20000 nM | CCC(=O)NCc1cc(=O)n(-c2ccc(F)cc2)cc1-c1ccn(C)n1 [compound 236, N-((1-(4-fluorophenyl)-5-(1-methyl-1H-pyrazol-3-yl)-2-oxo-1,2-dihydropyridin-4-yl)methyl)propionamide]
15 | > 20000 nM | Cn1ccc(-c2cn(-c3ccc(F)cc3)c(=O)cc2CNS(C)(=O)=O)n1 [compound 237, N-((1-(4-fluorophenyl)-5-(1-methyl-1H-pyrazol-3-yl)-2-oxo-1,2-dihydropyridin-4-yl)methyl)methanesulfonamide]
16 | < 1000 nM | CCC(=O)NCc1cnc(-c2ccc(F)cc2)cc1-n1ncc(C)n1 [compound 245, N-((6-(4-fluorophenyl)-4-(4-methyl-2H-1,2,3-triazol-2-yl)pyridin-3-yl)methyl)propionamide]
17 | > 20000 nM | C=CC(=O)NCc1cnc(-c2ccc(F)cc2)cc1-n1ccc(C(F)(F)F)n1 [compound 246, N-((6-(4-fluorophenyl)-4-(3-(trifluoromethyl)-1H-pyrazol-1-yl)pyridin-3-yl)methyl)acrylamide]
18 | < 1000 nM | C=CC(=O)NCc1cnc(-c2ccc(F)cc2)cc1-n1cc(C(F)(F)F)cn1 [compound 248, N-((6-(4-fluorophenyl)-4-(4-(trifluoromethyl)-1H-pyrazol-1-yl)pyridin-3-yl)methyl)acrylamide]
19 | > 20000 nM | CCC(=O)NCc1cnc(-c2ccc(F)cc2)cc1-n1nnnc1C [compound 252, N-((6-(4-fluorophenyl)-4-(5-methyl-1H-tetrazol-1-yl)pyridin-3-yl)methyl)propionamide]
20 | 1000 to 20000 nM | CCC(=O)N1CCC(c2ccc(-c3ccc(F)cc3)cc2-c2ccn(C)n2)C1 (stereo not drawn) [compound 259, 1-(3-(4′-fluoro-3-(1-methyl-1H-pyrazol-3-yl)-[1,1′-biphenyl]-4-yl)pyrrolidin-1-yl)propan-1-one]
21 | > 20000 nM | CNS(=O)(=O)N1CCC(c2cnc(-c3ccc(F)cc3)cc2-c2ccn(C(F)F)n2)C1 (stereo not drawn) [compound 263, 3-(4-(1-(difluoromethyl)-1H-pyrazol-3-yl)-6-(4-fluorophenyl)pyridin-3-yl)-N-methylpyrrolidine-1-sulfonamide]

The remaining lines, values behind:

Row | Structure (SMILES) | EC50
22 | NS(=O)(=O)CCNc1ccc(-c2ccccc2)cc1-c1ccn(Cc2cccnc2)n1 [compound 054, 2-((3-(1-(pyridin-3-ylmethyl)-1H-pyrazol-3-yl)-[1,1′-biphenyl]-4-yl)amino)ethane-1-sulfonamide] | < 1000 nM
23 | C=CC(=O)NCc1ncc(-c2ccc(F)cc2)cc1-c1nnn(C(F)F)n1 [compound 204, N-((3-(2-(difluoromethyl)-2H-tetrazol-5-yl)-5-(4-fluorophenyl)pyridin-2-yl)methyl)acrylamide] | < 1000 nM
24 | C=CC(=O)NCc1cnc(-c2ccc(C(F)(F)F)cc2)cc1-c1ccn(C(F)F)n1 [compound 209, N-((4-(1-(difluoromethyl)-1H-pyrazol-3-yl)-6-(4-(trifluoromethyl)phenyl)pyridin-3-yl)methyl)acrylamide] | < 1000 nM
25 | CCC(=O)NCc1cnc(-c2cccc(Cl)c2)cc1-c1ccn(C(F)F)n1 [compound 214, N-((6-(3-chlorophenyl)-4-(1-(difluoromethyl)-1H-pyrazol-3-yl)pyridin-3-yl)methyl)propionamide] | > 20000 nM
26 | CCC(=O)NCc1cnc(-c2cccc(C(F)(F)F)c2)cc1-c1ccn(C(F)F)n1 [compound 216, N-((4-(1-(difluoromethyl)-1H-pyrazol-3-yl)-6-(3-(trifluoromethyl)phenyl)pyridin-3-yl)methyl)propionamide] | > 20000 nM
27 | C=CC(=O)NCc1cc(-c2ccn(C(F)F)n2)cc(-c2ccc(F)cc2)n1 [compound 218, N-((4-(1-(difluoromethyl)-1H-pyrazol-3-yl)-6-(4-fluorophenyl)pyridin-2-yl)methyl)acrylamide] | < 1000 nM
28 | C=CC(=O)NCc1cnc(-c2cccc(C#N)c2)cc1-c1ccn(C(F)F)n1 [compound 220, N-((6-(3-cyanophenyl)-4-(1-(difluoromethyl)-1H-pyrazol-3-yl)pyridin-3-yl)methyl)acrylamide] | < 1000 nM
29 | CCC(=O)NCc1cc(-c2ccc(F)cc2)cc(-c2ccn(C(F)F)n2)n1 [compound 226, N-((6-(1-(difluoromethyl)-1H-pyrazol-3-yl)-4-(4-fluorophenyl)pyridin-2-yl)methyl)propionamide] | < 1000 nM
30 | CCC(=O)NCc1cnc(-c2ccc(F)cc2)cc1-c1cc2n(n1)CCCC2 [compound 232, N-((6-(4-fluorophenyl)-4-(4,5,6,7-tetrahydropyrazolo[1,5-a]pyridin-2-yl)pyridin-3-yl)methyl)propionamide] | < 1000 nM
31 | CNS(=O)(=O)NCc1cc(=O)n(-c2ccc(F)cc2)cc1-c1ccn(C)n1 [compound 238, N-methyl, N′-((1-(4-fluorophenyl)-5-(1-methyl-1H-pyrazol-3-yl)-2-oxo-1,2-dihydropyridin-4-yl)methyl)sulfamide] | > 20000 nM
32 | CCC(=O)NCc1ccc(-c2ccc(F)cc2)cc1-n1ccc(C)n1 [compound 242, N-((4′-fluoro-3-(3-methyl-1H-pyrazol-1-yl)-[1,1′-biphenyl]-4-yl)methyl)propionamide] | > 20000 nM
33 | C=CC(=O)NCc1cnc(-c2ccc(F)cc2)cc1-n1ccc(C2CC2)n1 [compound 247, N-((4-(3-cyclopropyl-1H-pyrazol-1-yl)-6-(4-fluorophenyl)pyridin-3-yl)methyl)acrylamide] | < 1000 nM
34 | C=CC(=O)NCc1cnc(-c2ccc(F)cc2)cc1-n1nnnc1C [compound 250, N-((6-(4-fluorophenyl)-4-(5-methyl-1H-tetrazol-1-yl)pyridin-3-yl)methyl)acrylamide] | > 20000 nM
35 | CCC(=O)NCc1cnc(-c2ccc(F)cc2)cc1-n1nnc(C)n1 [compound 251, N-((6-(4-fluorophenyl)-4-(5-methyl-2H-tetrazol-2-yl)pyridin-3-yl)methyl)propionamide] | > 20000 nM
36 | CS(=O)(=O)N1CCC(c2ccc(-c3ccc(F)cc3)cc2-c2ccn(C(F)F)n2)C1 (stereo not drawn) [compound 260, 1-(difluoromethyl)-3-(4′-fluoro-4-(1-(methylsulfonyl)pyrrolidin-3-yl)-[1,1′-biphenyl]-3-yl)-1H-pyrazole] | > 20000 nM
